Experimental data taken from patent US3950393A, “Aminobenzyl-amides and salts thereof” (Boehringer Ingelheim GmbH, priority 1973, dated 1976).
Counter-ions that a name gives are not always drawn. Like-named read-outs stand apart in the source and are kept apart here.

Experiments:
[1] = tested on: guinea pigs; test: Secretolytic (expectorant) effect in anesthetized guinea pigs after oral application; format: in vivo; details: 8 mgm/kg oral, within 2 hours, 6-8 animals
Protocol: (§1) The expectorant activity was tested on anesthetized rabbits and guinea pigs after oral application of 8 mgm/kg of the test compound to 6-8 animals. The increase in secretion within 2 hours was calculated from the amounts of secretion before and after application of the substance [see Perry and Boyd in Pharmakol. exp. Therap. 73, 65 (1941)].

[2] = tested on: cats; test: Circulatory effect in cats under chloralose-urethane anesthesia after intravenous application; format: in vivo; details: 2, 4 and 8 mgm/kg intravenous, 3 animals per dose
Protocol: The circulatory effect in cats was determined under chloralose-urethane anesthesia after intravenous application of 2,4 and 8 mgm/kg of the test compound (3 animals per dose).

[3] = in vivo; details: mouse, in vivo, po
Protocol: (§2) The acute toxicity of the test compounds was determined after a single application of 1000 or 2000 mgm/kg p.o., respectively, to 5 white mice each.

[4] = tested on: white mice; test: in vivo
Protocol: as §2

[5] = tested on: ulcers; test: Anti-ulcerogenic activity, acetic acid stomach ulcers, method of K. Takagi et al; format: in vivo, female rats; details: three weeks with food
Protocol: The inhibiting effect of the test compounds on the formation of ulcers was determined according to the method of K. Takagi et al [Jap. J. Pharmac. 19, 418 (1969)]. The abdominal cavity of anesthetized female rats having a body weight from 220 to 250 gm was opened and the stomach was exposed. Then, 0.05 ml of an aqueous 5% acetic acid solution was injected between the muscularis mucosae and submucosa of the stomach. Thereafter, the abdominal cavity was closed again. The ulcers formed in the mucosa after 3 to 5 days were treated for three weeks by admixing the test compound in question with the food at dosage levels of 50 and 100 mgm/kg (6 animals/dose). The control animals were fed with the pulverized food only.
After treatment for three weeks the animals were killed, the stomach was removed, and the size of the ulcers was determined by measurement of their length and width. The anti-ulcerogenic activity of the test compound was determined by the size of the ulcers comparing with the control values (100%): […]

[6] = tested on: rabbits; test: Secretolytic (expectorant) effect in anesthetized rabbits after oral application; format: in vivo; details: 8 mgm/kg oral, within 2 hours, 6-8 animals
Protocol: as §1

[7] = single application, 5 white mice, read-out: Acute toxicity

Molecule | Increase in secretion [1] [%] | Circulatory effect [2] | LD50 [3, 7] [mg/kg] | animals died ([4]; single 1000 mgm/kg p.o.) | reduction of the ulcers compared with control values ([5]; peroral dosage of 50 mgm/kg) [%] | reduction of the ulcers compared with control values ([5]; peroral dosage of 100 mgm/kg) [%] | animals died ([4]; single 2000 mgm/kg p.o.) | Increase in secretion [6] [%] | LD50 [3] [mg/kg]
CCN(Cc1cc(C(=O)O)cc(Br)c1N)C1CCCCC1.Cl [B, 2-amino-3-bromo-5-carboxy-N-cyclohexyl-N-ethyl-benzylamine hydrochloride] | 81 | no change | > 1000 | 0 out of 5 |  |  |  |  | 
2-amino-3-bromo-N-cyclohexyl-N-ethyl-3-fluoro-benzylamine hydrochloride | 100 |  |  | 0 out of 5 |  |  |  |  | 
CN(C)Cc1cc(F)cc(Br)c1N.Cl [G, 2-amino-3-bromo-N,N-dimethyl-5-fluoro-benzylamine hydrochloride] | 84 |  | > 1000 | 0 out of 5 |  |  |  |  | 
CCOC(=O)c1cc(Br)c(N)c(CN(CC)CC)c1.Cl [A, 2-amino-3-bromo-5-carbethoxy-N,N-diethyl-benzylamine hydrochloride] | 90 | no change | > 2000 |  | 52 | 79 | 0 out of 5 |  | 
CC(C)(C)c1cc(N)c(CN2CCOCC2)cc1Br.Cl.Cl [E, N-(2-amino-5-bromo-4-tert.butyl-benzyl)-morpholine dihydrochloride] |  |  | > 1000 | 0 out of 5 |  |  |  | 77 | 
Cc1cc(Br)cc(CN2CCCCCC2)c1N [D, N-(2-amino-5-bromo-3-methyl-benzyl)-hexamethyleneamine dihydrochloride] |  |  |  | 0 out of 5 |  |  |  | 72 | > 1000
CC(=O)c1cc(Br)c(N)c(CN(C)C)c1 [F, 5-acetyl-2-amino-3-bromo-N,N-dimethyl-benzylamine] |  |  | ~1000 | 2 out of 5 |  |  |  | 75 | 
